Columns and labels:
Format in all cases: cell-based
A375 cells = experiment: Antiproliferative MTT assay; conditions: Homo sapiens, A-375, 48 h, mean ± S.D. of two experiments
Protocol: (§1) The effect of final target compounds over A375 and SK-MEL-5 was performed using reported procedures (detailed procedure is located in the Supplementary Information page 51s). […]
(§2) Evaluation of the Antiproliferative Activity Against A375 and SK-MEL-5
(§3) A375 and SK-MEL-5 cells were purchased from American Type Culture Collection (ATCC, Ro ckv ille, MD, USA) and maintained in Dulbecco’s modified eagle medium (DMEM, Welgene, Daegu, Republic of Korea) supplemented with 10% fetal bovine serum (FBS, Welgene, Daegu, Republic of Korea) and 1% penicillin/streptomycin (Welgene, Daegu, Republic of Korea) in a hu midified atmo sphere with 5% CO2 at 37 °C. Both cells were taken from culture substrate with 0.05% trypsin-0.02% EDTA and plated at a density of 5 × 10^3 cells/well in 96 well plates and then incubated at 37 °C fo r 24 h in a hu midified atmo sphere with 5% CO2 prior to treatment with various concentrations (3-fold serial dilution, 12 points) of the tested compounds. The cells were incubated for 48 h after treatment with the test compounds. The cell viability was assessed by the conventional 3-(4,5-dimethylthiazol-2-yl)-2,5-diphenyltetrazolium bromide (MTT) reduction assay. MTT assays were carried out with CellTiter 96® (Promega) according to the manufacturer’s instructions. The absorbance at 590 nm was recorded using EnVision 2103 (Perkin Elmer; Bo ston , MA, USA). The IC50 values were calculated using GraphPad Prism 4.0

SK-MEL-5 cells = experiment: Antiproliferative MTT assay; conditions: Homo sapiens, 48 h, mean ± S.D. of two experiments
Protocol: as §1, §2, §3

BT-549 = experiment: NCI 60 cell line screen; conditions: Homo sapiens; BT-549, Breast Cancer; read-out: Percent growth
Method in brief: (§4)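 SRB read-out (515 nm) after 48 h drug exposure, 37 °C, RPMI 1640/5% FBS; five-point dilution series, top conc. 10 µM. Percent growth from Tz, control and treated absorbances; GI50 and TGI derived.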

HCT-116 = experiment: NCI 60 cell line screen; conditions: Homo sapiens; HCT-116, Colon Cancer; read-out: Percent growth
Method in brief: as §4

MDA-MB-435 = experiment: NCI 60 cell line screen; conditions: Homo sapiens; MDA-MB-435, Melanoma; read-out: Percent growth
Method in brief: as §4

NCI-H322M = experiment: NCI 60 cell line screen; conditions: Homo sapiens, Non-Small Cell Lung Cancer, read-out: Percent growth
Method in brief: as §4

OVCAR-5 = experiment: NCI 60 cell line screen; conditions: Homo sapiens; OVCAR-5, Ovarian Cancer; read-out: Percent growth
Method in brief: as §4

OVCAR-8 = experiment: NCI 60 cell line screen; conditions: Homo sapiens; OVCAR-8, Ovarian Cancer; read-out: Percent growth
Method in brief: as §4

SF-268 = experiment: NCI 60 cell line screen; conditions: Homo sapiens; SF-268, CNS-Cancer; read-out: Percent growth
Method in brief: as §4

SF-539 = experiment: NCI 60 cell line screen; conditions: Homo sapiens; SF-539, CNS-Cancer; read-out: Percent growth
Method in brief: as §4

SK-MEL-2 = experiment: NCI 60 cell line screen; conditions: Homo sapiens; SK-MEL-2, Melanoma; read-out: Percent growth
Method in brief: as §4

SW-620 = experiment: NCI 60 cell line screen; conditions: Homo sapiens; SW-620, Colon Cancer; read-out: Percent growth
Method in brief: as §4

Molecule `COc1ccc(S(=O)(=O)NCCCNc2nccc(-n3cnc4ccccc43)n2)cc1` [12m, N-(3-((4-(1H-benzo [d]imidazol-1-yl)pyrimidin-2-yl)amino)propyl)-4-methoxy benzenesulfonamide] has an IC50 (A375 cells) of 13.1 ± 0.27 µM, an IC50 (SK-MEL-5 cells) of 14.6 ± 0.71 µM and an activity at 10 µM (BT-549) of 92.9%. The activity at 10 µM (HCT-116) was 89.9%, the activity at 10 µM (MDA-MB-435) was 98.7% and the activity at 10 µM (NCI-H322M) was 104%. It also gave an activity at 10 µM (OVCAR-5) of 99.6%, an activity at 10 µM (OVCAR-8) of 93.7% and an activity at 10 µM (SF-268) of 91.6%. For the same molecule, the activity at 10 µM (SF-539) was 83.9%, the activity at 10 µM (SK-MEL-2) was 103% and the activity at 10 µM (SW-620) was 104%.
For `O=S(=O)(NCCCNc1nccc(-n2cnc3ccccc32)n1)c1ccc(Cl)cc1` [12j, N-(3-((4-(1H-benzo [d]imidazol-1-yl)pyrimidin-2-yl)amino)propyl)-4-chloro benzenesulfonamide], the IC50 (A375 cells) was 10.4 ± 0.24 µM, the IC50 (SK-MEL-5 cells) was 12.9 ± 0.72 µM and the activity at 10 µM (BT-549) was 90.1%. For the same molecule, the activity at 10 µM (HCT-116) was 94.1%, the activity at 10 µM (MDA-MB-435) was 95.5% and the activity at 10 µM (NCI-H322M) was 104%. For the same molecule, the activity at 10 µM (OVCAR-5) was 105%, the activity at 10 µM (OVCAR-8) was 90.8% and the activity at 10 µM (SF-268) was 98.2%. It also gave an activity at 10 µM (SF-539) of 91.9%, an activity at 10 µM (SK-MEL-2) of 108% and an activity at 10 µM (SW-620) of 110%.
